According to paper PMC10424242, “Macrocyclic Peptidomimetic Plasmepsin X Inhibitors with Potent In Vitro and In Vivo Antimalarial Activity” (Journal of Medicinal Chemistry, 2023):
“Also recorded” adds a separate entry of the source. Where two headings read alike, the source gives them in different places.

Key:
[1] = target: recombinant P. falciparum PMX (Plasmodium falciparum, UniProt Q8IAS0); assay: Recombinant P. falciparum PMX inhibition assay (fluorogenic substrate Rh2N); assay type: biochemical
recombinant P. falciparum PMX, sequence (Q8IAS0 222-573): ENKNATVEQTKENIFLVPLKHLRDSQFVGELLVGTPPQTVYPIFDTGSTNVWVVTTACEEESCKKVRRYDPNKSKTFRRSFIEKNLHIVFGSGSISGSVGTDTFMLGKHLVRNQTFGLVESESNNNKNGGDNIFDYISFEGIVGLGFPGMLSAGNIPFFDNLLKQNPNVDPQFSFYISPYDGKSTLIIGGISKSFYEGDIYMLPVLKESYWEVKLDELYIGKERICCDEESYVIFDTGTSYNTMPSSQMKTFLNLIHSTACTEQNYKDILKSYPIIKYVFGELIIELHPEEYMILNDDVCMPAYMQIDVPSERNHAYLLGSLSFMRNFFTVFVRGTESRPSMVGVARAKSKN
Experimental: The fluorescence of this peptide is quenched by the spatial proximity of the DABCYL/EDANS groups in the uncleaved peptide and is increased upon cleavage at the internal F–I bond. […] Control wells contained no inhibitor, and the plate was blanked against the substrate only in DB. […] All experiments were performed in duplicate.

PMIV = PMIV (Plasmodium falciparum, UniProt Q8IM16); assay: FRET-based PMIV inhibition assay; assay type: biochemical, P. falciparum
PMIV, sequence (Q8IM16 122-449): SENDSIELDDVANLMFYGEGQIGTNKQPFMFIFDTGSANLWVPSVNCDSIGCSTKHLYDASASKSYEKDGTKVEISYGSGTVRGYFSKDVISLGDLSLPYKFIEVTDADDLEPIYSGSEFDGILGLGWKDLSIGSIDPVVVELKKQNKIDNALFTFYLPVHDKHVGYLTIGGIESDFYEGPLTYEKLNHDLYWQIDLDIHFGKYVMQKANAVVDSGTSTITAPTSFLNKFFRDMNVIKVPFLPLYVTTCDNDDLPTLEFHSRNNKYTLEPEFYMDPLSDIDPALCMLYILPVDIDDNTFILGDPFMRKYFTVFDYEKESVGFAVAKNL
Experimental: (§1) A fluorescence resonance energy transfer (FRET)-based assay was performed to assess the ability of the compounds to inhibit PMIV, CatD, and BACE1. Serial dilutions of test compounds were dispensed in a white 96-well plate. […] The mixture was incubated for 20 min at 37 °C. […] IC50 values were calculated with GraphPad Prism 8.0 using the nonlinear regression, variable slope (four parameters). Compounds were tested in triplicate.

BACE1 = BACE1 (Homo sapiens, UniProt P56817); assay: FRET-based BACE1 inhibition assay (selectivity counter screen); assay type: biochemical
BACE1, sequence (P56817 46-501): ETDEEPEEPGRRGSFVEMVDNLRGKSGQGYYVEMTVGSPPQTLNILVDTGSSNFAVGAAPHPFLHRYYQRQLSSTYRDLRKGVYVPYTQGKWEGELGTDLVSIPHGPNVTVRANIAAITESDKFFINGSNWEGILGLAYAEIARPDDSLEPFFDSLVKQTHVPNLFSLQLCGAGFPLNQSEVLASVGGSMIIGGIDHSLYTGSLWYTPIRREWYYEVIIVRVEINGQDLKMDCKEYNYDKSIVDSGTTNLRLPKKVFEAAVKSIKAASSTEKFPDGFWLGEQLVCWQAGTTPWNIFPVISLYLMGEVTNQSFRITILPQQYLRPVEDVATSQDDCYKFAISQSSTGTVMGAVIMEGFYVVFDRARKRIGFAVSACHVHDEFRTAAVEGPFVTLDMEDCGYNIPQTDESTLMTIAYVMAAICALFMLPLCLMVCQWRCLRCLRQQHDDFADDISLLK
Experimental: as §1

[2] = Tolerability testing in mice; assay type: in vivo, NMRI female mice; conditions: p.os 50 mg/kg up to 24 h, 0–6 score system
Experimental: NMRI female mice (10–12 weeks old, 29–32 g) were obtained from ENVIGO (The Netherlands) and housed prior to treatment under standard conditions (acclimatization period of 1 week, 21–23 °C, 12-h light/dark cycle, relative humidity 45–65%) with unlimited access to food (R70 diet from Lantmännen) and water. The experimental procedures were performed in accordance with the guidelines of the European Community and local laws and policies (Directive 2010/63/EU), and all of the procedures were approved by Food and Veterinary Service, Riga, Latvia. Animals were weighed on the day of the treatment (before treatment) to calculate the required amount of compound for the corresponding dose. For tolerability and PK studies, the mice were dosed via a peroral (PO) bolus administration (volume 10 mL/kg). Toxicity signs were scored 0–2, 5, 10, 15, 30, 60, 120, 240 min, and 24 h after administration using a widely used 0–6 score system.

[3] = test system: P. falciparum Pf3D7^0087/N9; assay: In vivo efficacy against P. falciparum in the TAD PfalcHuMouse model
Experimental: Therapeutic efficacy studies were performed at TAD using a standardized humanized mouse model of P. falciparum malaria[31] with modifications.[34] […] The volume of injections was 1 and 0.7 mL for i.p. or i.v. inoculation, respectively.
The inoculum was obtained from peripheral blood of CO2-euthanized donor mice harboring 5–10% parasitemia.
Before drug administration, each infected mouse was randomly assigned to its corresponding treatment. […] The treatment was administered by oral gavage with 20G straight reusable feeding needles (Fine Science Tools GmbH) at 10 mL·kgbodyweight^–1 unless otherwise stated.
Parasitemia was measured in serial 2 μL of samples of tail blood by flow cytometry and expressed as the % of parasitized erythrocytes with respect to the total erythrocytes in circulation.
The clearance of parasitized erythrocytes from the peripheral blood of mice was assessed by measuring the parasite reduction ratio (PRR) calculated as the ratio between parasitemia at Day n + 2 divided by parasitemia at Day n for each individual of the study.
The parasiticidal effect of drugs in vivo was assessed by measuring the day of recrudescence (DoR) as described.[34] In short, DoR was defined as the day at which parasitemia after drug treatment reached the % parasitemia at treatment inception. Drug-treated mice were deemed cured if there was no detectable parasitemia 60 days after treatment.

[4] = Drug blood concentrations in PfalcHuMice during efficacy testing; assay type: in vivo; conditions: for total Cmin: PfalcHuMouse, 40 mg/kg p.o.
Experimental: The concentrations of drugs were measured in samples of peripheral blood (25 μL) taken at different times after the first dosing, mixed with 25 μL of Milli-Q H2O, and immediately frozen on a thermal block at −80 °C. The frozen samples were stored at −80 °C until analysis. Blood from control humanized mice was used for the preparation of standard curves, calibration, and quality control purposes. The drugs were extracted from 10 μL of lysates obtained by protein precipitation of blood samples using standard liquid–liquid extraction methods. The samples were analyzed by LC-MS/MS for quantification in a Waters Micromass UPLC-TQD (Waters, Manchester, U.K.). Blood concentration vs time was analyzed by non-compartmental analysis (NCA) using Phoenix WinNonlin vers.9.2 (Certara) or R or Excel (Microsoft), from which exposure-related values (tmax, Cmax, and AUC0–t) were estimated.

[5] = test system: P. falciparum 3D7 parasites; assay: Microscopy of synchronized P. falciparum cultures treated from ring stage (development and egress); assay type: cell-based; conditions: 20 nM
Experimental: Asexual blood-stage forms of P. falciparum strains 3D7 and Dd2 were maintained at 37 °C in an atmosphere of 1% O2, 5% CO2, and 94% N2 in human RBCs in RPMI 1640 medium containing AlbuMAX II (Thermo Fisher Scientific) and supplemented with 2 mM L-glutamine. The synchronization of parasite cultures was as described previously.[39] Briefly, this involved isolating mature schizont forms by centrifugation over cushions of 70% (v/v) isotonic Percoll (GE Healthcare, Life Sciences) and then allowing the parasites to undergo rupture in the presence of fresh RBCs for 2 h under gentle shaking conditions (100 rpm). Residual schizonts were then removed through a second Percoll separation, followed by treatment with 5% (w/v) sorbitol to finally obtain a highly synchronized preparation of newly invaded ring-stage parasites.
Growth stage progression and parasite morphology were also monitored by microscopic examination at selected time points using Giemsa-stained thin blood films.

[6] = test system: maturation of the PMX substrate SUB1 (p54 to p47); assay: Western blot of SUB1 maturation in treated schizonts; assay type: cell-based, P. falciparum; conditions: 20 nM, 44 h
Experimental: This phenotype is characteristic of the inhibition of PMX.
(§2) Synchronous parasite cultures were cultured from ring to schizont stage (∼44 h) in the presence of DMSO alone (0.04% v/v; control) or macrocycle compounds (20 nM final concentration). Schizonts were isolated by Percoll enrichment (still in the presence of the test compound), then either immediately frozen or further incubated in the absence of the drug but in the presence of C2 (1 μM) for 1 h at 37°C in the absence of added RBCs or for 3.5 h in the presence of added RBCs. The schizonts without added RBCs were then frozen too, and all schizont samples were then thawed into CHAPS–urea extraction buffer, subjected to sodium dodecyl sulfate-polyacrylamide gel electrophoresis (SDS-PAGE), and analyzed by Western blot, probing with antibodies against SUB1 or RAP1. For schizonts cultured in the presence of added RBCs, ring formation was assessed in two ways: cultures were examined microscopically by Giemsa stain of thin films and were also fixed with glutaraldehyde and processed for quantification of ring formation by flow cytometry as described above.

P. falciparum schizonts = assay: Washout assay, schizont rupture and new ring formation; assay type: cell-based; conditions: 20 nM ∼44 h, […] with added RBCs
Experimental: The schizont cultures lacking added RBCs were supplemented with compound C2, which blocks the discharge of exonemes, the parasite secretory organelles in which PMX and SUB1 are stored before egress. The schizonts without added RBCs were sampled for Western blot analysis, while the schizont cultures containing RBCs were examined by microscopy and flow cytometry after a further 4 h in culture to quantify schizont rupture and new ring formation.
as §2

CCCN1CCCCCc2cccc(c2)C[C@@H]([C@H](O)CNC(C)(C)c2cccc(OC)c2)NC(=O)c2cccc(c2)C1=O [7k, (S)-4-((R)-1-Hydroxy-2-((2-(3-methoxyphenyl)propan-2-yl)amino)ethyl)-12-propyl-3,12-diaza-1,6(1,3)-dibenzenacyclotridecaphane-2,13-dione]
IC50 ([1]; Table 3, read-out: PMX, nM (as listed in Table 3)): 0.4 ± 0.03 nM | improvement of PMX inhibitory potency ([1]; compared to 7a): 10 fold | IC50 ([1]; recombinant PMX, read-out: PMX, nM (IC50)): 0.4 ± 0.03 nM | IC50 (PMIV; Table 3, read-out: PMIV, nM (as listed in Table 3)): 17 ± 2 nM | improvement of PMIV inhibitory potency (PMIV; compared to 7a): 3 fold | IC50 (PMIV; read-out: PMIV, nM (IC50)): 17 ± 2 nM | IC50 (BACE1): 2030 ± 100 nM | tolerability [2]: No adverse effects were observed; also recorded: no toxic effect (score 0) | clearance of parasitemia from peripheral blood ([3]; 40 mg/kg p.o., UID, BID or TID): cleared parasitemia from the peripheral blood in a dose-dependent manner | parasite clearance rate compared with chloroquine ([3]; chloroquine at 10 mg/kg for 2 days in the same system): comparable to those produced by chloroquine at 10 mg/kg for 2 days | parasite killing in vivo (DoR versus exposure) compared with chloroquine ([3]; comparable treatment regimens, chloroquine historical data): as potent as chloroquine | distribution of parasite stages in peripheral blood ([3]; day 3 of the assay, flow cytometry and microscopy): relative accumulation of circulating mature schizonts compared to untreated controls | effect on parasite burden ([3]; three times a day for 4 days at 40 mg/kg, oral): eliminated P. falciparum from peripheral blood at a rate comparable to chloroquine single-dose administration for 2 days (10 mg/kg) | total Cmin ([4]; BID): 32 ng/mL | total Cmin ([4]; TID): 85 ng/mL | total Cmin ([4]; UID): 51 ng/mL | pharmacokinetic modeling of concentrations over the period of administration ([4]; plasma concentration at 71.0, 72.5, 73.0 and 78.0 hours post-treatment): rapid absorption with no accumulation | intraerythrocytic development of ring-stage parasites to schizont stage ([5]; 44 h): Development of ring-stage parasites to the multinucleated schizont stage occurred similarly in all cultures | schizont rupture (egress) and appearance of new rings ([5]; 44 h and extended incubation): schizont rupture and appearance of new rings did not occur | maturation of SUB1 (p54 to p47) [6]: clear defect in maturation of the PMX substrate SUB1 | new ring formation after washout (P. falciparum schizonts): minimal rings were produced
